# Measurements taken from patent US6087355A, “Cephalosporin antibiotics” (Microcide Pharmaceuticals, Inc., priority 1996, dated 2000).
# Counter-ions that a name gives are not always drawn.
# Legend:
# Experiment in all cases: In vitro MIC, agar dilution
# Format in all cases: cell-based
# [1] = system: S. aureus Col(Meth^R)(lac^-); conditions: for MIC: Staphylococcus aureus, read-out: minimum inhibitory concentration (MIC)
# Procedure, shortened: (§1)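 Two-fold dilutions (128 to ≤0.25 μg/mL, in duplicate) were poured into Mueller-Hinton agar. Log-phase broth cultures were spot-inoculated at about 10^4 cfu per spot and incubated 35-36°C for 16-20 hours; the MIC was the lowest concentration inhibiting growth. Col is a high-level PBP2a producer; Col 8A is its isogenic PBP2a-lacking partner.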
# [2] = system: S. aureus Col8A(Meth^S)(lac^-); conditions: S. aureus Col8A(Meth^S)(lac^-); for MIC: Staphylococcus aureus, read-out: minimum inhibitory concentration (MIC)
# Procedure, shortened: as §1
# [3] = system: S. aureus ATCC 33593(Meth^R); conditions: for MIC: Staphylococcus aureus, ATCC33593, read-out: minimum inhibitory concentration (MIC)
# Procedure, shortened: (§2)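 Agar dilution on Mueller-Hinton plates: spots of roughly 10^4 cfu of log-phase bacteria were placed on agar containing serial two-fold compound dilutions, from a 128 μg/mL top working level to ≤0.25 μg/mL, each in duplicate. After 16-20 hours at 35-36° C, the lowest growth-inhibiting concentration was taken as the MIC.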
# [4] = system: S. aureus 76(Meth^R)(lac^+); conditions: for MIC: Staphylococcus aureus, read-out: minimum inhibitory concentration (MIC)
# Procedure, shortened: as §2
# [5] = system: S. haemolyticus 05(Meth^R); conditions: for MIC: Staphylococcus haemolyticus, read-out: minimum inhibitory concentration (MIC)
# Procedure, shortened: as §2
# [6] = system: S. aureus PC1(Meth^S)(lac^+); conditions: for MIC: Staphylococcus aureus, read-out: minimum inhibitory concentration (MIC)
# Procedure, shortened: as §2
# [7] = system: E. faecium ATCC 35667; conditions: for MIC: Enterococcus faecium, ATCC35667, read-out: minimum inhibitory concentration (MIC)
# Procedure, shortened: as §2
# [8] = system: E. faecalis VanB(Van^R); conditions: for MIC: Enterococcus faecalis, read-out: minimum inhibitory concentration (MIC)
# Procedure, shortened: as §2
# [9] = system: S. aureus ATCC 13709(Meth^S); conditions: for MIC: Staphylococcus aureus, ATCC13709, S. aureus ATCC 13709(Meth^S), read-out: minimum inhibitory concentration (MIC); for minimum inhibitory concentration (MIC): S. aureus ATCC 13709(Meth^S)
# Procedure, shortened: as §2
# [10] = system: E. faecium A491(Amp^R); conditions: for MIC: Enterococcus faecium, read-out: minimum inhibitory concentration (MIC)
# Procedure, shortened: as §2
# [11] = system: S. aureus Spain #356(Meth^R); conditions: for MIC: Staphylococcus aureus, read-out: minimum inhibitory concentration (MIC)
# Procedure, shortened: as §2
# [12] = system: E. faecium VanA(Van^R); conditions: for MIC: Enterococcus faecium, read-out: minimum inhibitory concentration (MIC)
# Procedure, shortened: as §2
# [13] = system: P. aeruginosa ATCC 27853; conditions: for MIC: Pseudomonas aeruginosa, ATCC27853, read-out: minimum inhibitory concentration (MIC)
# Procedure, shortened: as §2
# [14] = system: E. faecalis ATCC 29212; conditions: for MIC: Enterococcus faecalis, ATCC29212, read-out: minimum inhibitory concentration (MIC)
# Procedure, shortened: as §2
# [15] = system: S. aureus ATCC 29213; conditions: for MIC: Staphylococcus aureus, ATCC29213, read-out: minimum inhibitory concentration (MIC)
# Procedure, shortened: as §2
# [16] = system: E. coli ATCC 25992; conditions: for MIC: Escherichia coli, ATCC25992, read-out: minimum inhibitory concentration (MIC)
# Procedure, shortened: as §2
SMILES,MIC [1],MIC [2],MIC [3],MIC [4],MIC [5],MIC [6],MIC [7],MIC [8],MIC [9],MIC [10],MIC [11],MIC [12],MIC [13],MIC [14],MIC [15],MIC [16],other results
"NCCSCc1cnccc1SC1=C(C(=O)O)N2C(=O)[C@@H](NC(=O)Cc3ccccc3)[C@H]2SC1.O=C(O)C(F)(F)F [Cmpd 9, (7R)-7-[(phenylacetyl)amino]-3-(3-aminoethylthiomethylpyrid-4-ylthio)-3-cephem-4-carboxylate, trifluoroacetic acid salt]",1 µg/mL,0.13 µg/mL,4 µg/mL,4 µg/mL,16 µg/mL,1 µg/mL,1 µg/mL,2 µg/mL,≤ 0.06 µg/mL,> 32 µg/mL,4 µg/mL,4 µg/mL,> 32 µg/mL,1 µg/mL,0.25 µg/mL,> 32 µg/mL,–
"NCCSCc1cnccc1SC1=C(C(=O)O)N2C(=O)[C@@H](NC(=O)/C(=N\O)c3nc(N)sc3Br)[C@H]2SC1.O=C(O)C(F)(F)F [Cmpd 21, (7R)-7-[(Z)-2-(2-amino-5-bromothiazol-4-yl)-2-(hydroxyimino)acetamido]-3-(3-aminoethylthiomethylpyrid-4-ylthio)-3-cephem-4-carboxylate, trifluoroacetic acid salt]",1 µg/mL,0.25 µg/mL,1 µg/mL,1 µg/mL,2 µg/mL,0.5 µg/mL,0.5 µg/mL,0.13 µg/mL,1 µg/mL,8 µg/mL,1 µg/mL,1 µg/mL,> 32 µg/mL,0.13 µg/mL,0.25 µg/mL,32 µg/mL,–
"CNCCNCCSCc1nnsc1SC1=C(C(=O)O)N2C(=O)[C@@H](NC(=O)/C(=N\O)c3nc(N)sc3Cl)[C@H]2SC1.O=C(O)C(F)(F)F [Cmpd 22, (7R)-7-[(Z)-2-(2-amino-5-chlorothiazol-4-yl)-2-(hydroxyimino)acetamido]-3-[(methylaminoethylaminoethylthiomethyl)-1,2,3-thiadiazol-5-ylthio]-3-cephem-4-carboxylate, trifluoroacetic acid salt]",–,–,–,–,–,–,–,–,–,–,–,–,–,–,–,–,minimum inhibitory concentration (MIC) [1]: 2 µg/mL; minimum inhibitory concentration (MIC) [2]: 0.5 µg/mL; minimum inhibitory concentration (MIC) [3]: 2 µg/mL; minimum inhibitory concentration (MIC) [4]: 2 µg/mL; minimum inhibitory concentration (MIC) [5]: 2 µg/mL; minimum inhibitory concentration (MIC) [6]: 1 µg/mL; minimum inhibitory concentration (MIC) [7]: 1 µg/mL; minimum inhibitory concentration (MIC) [8]: 0.5 µg/mL; minimum inhibitory concentration (MIC) [9]: 1 µg/mL; minimum inhibitory concentration (MIC) [10]: 16 µg/mL; minimum inhibitory concentration (MIC) [11]: 2 µg/mL; minimum inhibitory concentration (MIC) [12]: 2 µg/mL; minimum inhibitory concentration (MIC) [13]: > 32 µg/mL; minimum inhibitory concentration (MIC) [14]: 0.13 µg/mL; minimum inhibitory concentration (MIC) [15]: 0.25 µg/mL; minimum inhibitory concentration (MIC) [16]: 8 µg/mL
"N=CNCCSCc1cnccc1SC1=C(C(=O)O)N2C(=O)[C@@H](NC(=O)/C(=N\O)c3csc(N)n3)[C@H]2SC1.O=C(O)C(F)(F)F [Cmpd 25, (7R)-7-[(Z)-2-(aminothiazol-4-yl)-2-(hydroxyimino)acetamido]-3-(3-(N-formamidoyl)aminoethylthiomethylpyrid-4-ylthio)-3-cephem-4-carboxylate, trifluoroacetic acid salt]",–,–,–,–,–,–,–,–,–,–,–,–,–,–,–,–,minimum inhibitory concentration (MIC) [1]: 1 µg/mL; minimum inhibitory concentration (MIC) [2]: 0.25 µg/mL; minimum inhibitory concentration (MIC) [3]: 1 µg/mL; minimum inhibitory concentration (MIC) [4]: 2 µg/mL; minimum inhibitory concentration (MIC) [5]: 2 µg/mL; minimum inhibitory concentration (MIC) [6]: 0.25 µg/mL; minimum inhibitory concentration (MIC) [7]: 1 µg/mL; minimum inhibitory concentration (MIC) [8]: 0.13 µg/mL; minimum inhibitory concentration (MIC) [9]: 0.25 µg/mL; minimum inhibitory concentration (MIC) [10]: 32 µg/mL; minimum inhibitory concentration (MIC) [11]: 2 µg/mL; minimum inhibitory concentration (MIC) [12]: 2 µg/mL; minimum inhibitory concentration (MIC) [13]: > 32 µg/mL; minimum inhibitory concentration (MIC) [14]: 0.13 µg/mL; minimum inhibitory concentration (MIC) [15]: 0.25 µg/mL; minimum inhibitory concentration (MIC) [16]: 4 µg/mL
"N=CNCCCSCc1cnccc1SC1=C(C(=O)O)N2C(=O)[C@@H](NC(=O)/C(=N\O)c3nc(N)sc3Cl)[C@H]2SC1 [Cmpd 34, (7R)-7-[(Z)-2-(2-amino-5-chlorothiazol-4-yl)-2-(hydroxyimino)acetamido]-3-(3-(3-N-formamidoylaminopropylthiomethyl)pyrid-4-ylthio)-3-cephem-4-carboxylate, trifluoroacetic acid salt]",1 µg/mL,≤ 0.06 µg/mL,1 µg/mL,1 µg/mL,2 µg/mL,0.13 µg/mL,0.25 µg/mL,≤ 0.06 µg/mL,≤ 0.06 µg/mL,4 µg/mL,1 µg/mL,0.5 µg/mL,> 32 µg/mL,≤ 0.06 µg/mL,≤ 0.06 µg/mL,4 µg/mL,–
"NCC(=O)NCCCSCc1cnccc1SC1=C(C(=O)O)N2C(=O)[C@@H](NC(=O)/C(=N\O)c3nc(N)sc3Cl)[C@H]2SC1 [Cmpd 35, (7R)-7-[(Z)-2-(2-amino-5-chlorothiazol-4-yl)-2-(hydroxyimino)acetamido]-3-[3-(glycyl)aminopropylthiomethylpyrid-4-ylthio]-3-cephem-4-carboxylate, trifluoroacetic acid salt]",2 µg/mL,0.25 µg/mL,2 µg/mL,2 µg/mL,4 µg/mL,0.5 µg/mL,0.25 µg/mL,0.25 µg/mL,0.25 µg/mL,4 µg/mL,2 µg/mL,0.5 µg/mL,> 32 µg/mL,≤ 0.06 µg/mL,0.25 µg/mL,8 µg/mL,–
"NCCSCc1nnsc1SC1=C(C(=O)O)N2C(=O)[C@@H](NC(=O)Cc3ccccc3)[C@H]2SC1.O=C(O)C(F)(F)F [Cmpd 37, (7R)-7-[(phenylacetyl)amino]-3-(4-(2-aminoethylthiomethyl)-1,2,3-thiadiazol-5-ylthio)-3-cephem-4-carboxylate, trifluoroacetic acid salt]",0.5 µg/mL,≤ 0.06 µg/mL,16 µg/mL,4 µg/mL,8 µg/mL,1 µg/mL,0.5 µg/mL,0.5 µg/mL,≤ 0.06 µg/mL,> 32 µg/mL,8 µg/mL,2 µg/mL,> 32 µg/mL,0.25 µg/mL,0.5 µg/mL,> 32 µg/mL,–
"NCCSCc1nnsc1SC1=C(C(=O)O)N2C(=O)[C@@H](NC(=O)/C(=N\O)c3csc(N)n3)[C@H]2SC1 [Cmpd 38, (7R)-7-[(Z)-2-(aminothiazol-4-yl)-2-(hydroxyimino)acetamido]-3-(4-(2-aminoethylthiomethyl)-1,2,3-thiadiazol-5-ylthio)-3-cephem-4-carboxylate, trifluoroacetic acid salt]",1 µg/mL,0.13 µg/mL,1 µg/mL,1 µg/mL,2 µg/mL,0.25 µg/mL,1 µg/mL,0.13 µg/mL,0.13 µg/mL,> 32 µg/mL,1 µg/mL,2 µg/mL,> 32 µg/mL,0.13 µg/mL,0.13 µg/mL,2 µg/mL,–
"NCCOCc1cnccc1SC1=C(C(=O)O)N2C(=O)[C@@H](NC(=O)/C(=N\O)c3nc(N)sc3Cl)[C@H]2SC1 [Cmpd 40, (7R)-7-[(Z)-2-(2-amino-5-chlorothiazol-4-yl)-2-(hydroxyimino)acetamido]-3-(3-(2-aminoethoxymethyl)pyrid-4-ylthio)-3-cephem-4-carboxylate, trifluoroacetic acid salt]",2 µg/mL,0.5 µg/mL,2 µg/mL,2 µg/mL,4 µg/mL,0.13 µg/mL,1 µg/mL,0.25 µg/mL,0.25 µg/mL,16 µg/mL,2 µg/mL,2 µg/mL,> 32 µg/mL,0.13 µg/mL,0.25 µg/mL,8 µg/mL,–
